Source: the supplement of paper PMC12370961

What was measured:
Experiment in all cases: differential drug sensitivity score (dDSS) relative to sarcoma reference cohort mean DSS (DSS units (0-100 scale difference)); higher = more selective sensitivity than reference sarcomas
Conditions in all cases: exposure time: 72 h; concentration range: 10-10000 nM
CDS-ZH001-2 = test system: CDS-ZH001-2 (patient-derived CIC-DUX4 sarcoma tumoroid)
Procedure: (§1)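 Drug response profiling of patient-derived Ewing sarcoma and CIC::DUX4 sarcoma tumoroid models (or cells tested directly after isolation from the tumor, 'direct'). The DSS is the normalised AUC (0-100); dDSS is the sample DSS minus the mean DSS of a 34-sarcoma reference cohort profiled in the same lab.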

CDS-ZH001 = test system: CDS-ZH001 (patient-derived CIC-DUX4 sarcoma tumoroid)
Procedure: as §1

CDS-ZH002 direct = test system: CDS-ZH002 direct (CIC-DUX4 sarcoma cells right after isolation)
Procedure: as §1

CDS-ZH002 = test system: CDS-ZH002 (patient-derived CIC-DUX4 sarcoma tumoroid)
Procedure: as §1

CDS-ZH003 = test system: CDS-ZH003 (patient-derived CIC-DUX4 sarcoma tumoroid)
Procedure: as §1

ES-ZH001 = test system: ES-ZH001 (patient-derived Ewing sarcoma tumoroid)
Procedure: as §1

ES-ZH002 = test system: ES-ZH002 (patient-derived Ewing sarcoma tumoroid)
Procedure: as §1

ES-ZH004 = test system: ES-ZH004 (patient-derived Ewing sarcoma tumoroid)
Procedure: as §1

ES-ZH007 = test system: ES-ZH007 (patient-derived Ewing sarcoma tumoroid)
Procedure: as §1

ES-ZH008 = test system: ES-ZH008 (patient-derived Ewing sarcoma tumoroid)
Procedure: as §1

ES-ZH009 = test system: ES-ZH009 (patient-derived Ewing sarcoma tumoroid)
Procedure: as §1

ES-ZH016 direct = test system: ES-ZH016 direct (Ewing sarcoma cells right after isolation)
Procedure: as §1

ES-ZH016 = test system: ES-ZH016 (patient-derived Ewing sarcoma tumoroid)
Procedure: as §1

Row | SMILES | differential drug sensitivity score (CDS-ZH001-2) | differential drug sensitivity score (CDS-ZH001) | differential drug sensitivity score (CDS-ZH002 direct) | differential drug sensitivity score (CDS-ZH002) | differential drug sensitivity score (CDS-ZH003) | differential drug sensitivity score (ES-ZH001) | differential drug sensitivity score (ES-ZH002) | differential drug sensitivity score (ES-ZH004) | differential drug sensitivity score (ES-ZH007) | differential drug sensitivity score (ES-ZH008) | differential drug sensitivity score (ES-ZH009) | differential drug sensitivity score (ES-ZH016 direct) | differential drug sensitivity score (ES-ZH016)
1 | CCN(CC)CCCC(C)Nc1nc(C)cc(Nc2ccc3nc(C)cc(N)c3c2)n1 (stereo unspecified) | 9.7 | -0.8 | 2.8 | 1.1 | -1 | -1 | 0.7 | 1.1 | 0.4 | -1 | -0.9 | -1 | -1
2 | CCN(c1cc(C#CCN2CCOCC2)cc(C(=O)NCc2c(C)cc(C)[nH]c2=O)c1C)[C@H]1CC[C@H](N(C)CCOC)CC1 | -0.9 | -1.4 | -1.2 | -0.7 | -1.4 | 3.1 | 2.8 | -1.4 | -1.4 | 0.2 | -1.4 | -1.4 | -1.4
3 | CCc1ccc(/C=C2/SC(=S)NC2=O)cc1 | 1 | 3.2 | -2.1 | 2.3 | -1.6 | -2.1 | 1.2 | -2.1 | -1.2 | -1.6 | 3.1 | 4 | 5.6
4 | CCc1cncnc1N1CCN(Cc2nc3ccc(C(F)(F)F)cc3[nH]2)CC1 | -3.6 | -3.7 | -2.4 | -1 | -0.6 | -0.7 | -3.9 | -2.8 | -1.7 | -3.8 | 3.3 | -4.2 | -3.1
5 | CCn1c(-c2nonc2N)nc2c(C#CC(C)(C)O)ncc(OC[C@H]3CCCNC3)c21 | -9.5 | 5.1 | -3.1 | -9.5 | -9.5 | 0.5 | 13 | 10.8 | 4.4 | 15.5 | 5.5 | -1 | 1.1
6 | CCn1c(-c2nonc2N)nc2cnc(Oc3cccc(NC(=O)c4ccc(OCCN5CCOCC5)cc4)c3)cc21 | 1.1 | -2.7 | -2.4 | -2.9 | -1.3 | 1.8 | 4.5 | -2.6 | -2.1 | -2.1 | 6.5 | -1.7 | 2
7 | CCn1cc(C(=O)O)c(=O)c2c(N)c(F)c(NC3CCCCC3)cc21 | -0.9 | -0.9 | – | -0.9 | -0.9 | -0.9 | -0.9 | -0.9 | -0.3 | -0.9 | 3.3 | 7.2 | -0.9
8 | CN(c1ncccc1CNc1nc(Nc2ccc3c(c2)CC(=O)N3)ncc1C(F)(F)F)S(C)(=O)=O | 1.5 | 5.1 | 3.8 | -0.6 | -0.7 | 5 | 6 | -0.4 | -0.4 | -0.7 | 0.8 | -1.2 | 2.2
9 | COc1cc2c(Nc3ccc(NC(=O)c4ccccc4)cc3)ncnc2cc1OCCCN1CCOCC1 | 2.9 | 0.8 | 0.1 | -2.2 | -2.2 | 4.9 | 8.1 | 2.2 | 0.4 | -2 | 7.1 | 6.7 | 1.6
10 | COc1cc2nc(N3CCCN(C)CC3)nc(NC3CCN(Cc4ccccc4)CC3)c2cc1OC | 4 | 0.2 | 1.5 | -1.1 | 4 | 0.7 | 0 | 6.4 | 7.4 | 1.2 | -0.4 | 3.9 | -0.1
11 | Cc1c(-c2c(-c3ccc(F)o3)sc3ncnc(O[C@H](Cc4ccccc4OCc4ccnn4CC(F)(F)F)C(=O)O)c23)ccc(OCCN2CCN(C)CC2)c1Cl | 29.6 | 32.7 | 19.6 | 10.4 | 31.7 | -11.5 | 9.2 | 12.2 | 28.5 | 8.1 | 11.6 | 14.5 | 7
12 | Cc1c(-c2ccc(N3CCc4cccc(C(=O)Nc5nc6ccccc6s5)c4C3)nc2C(=O)O)cnn1CC12CC3CC(CC(C3)C1)C2 | – | – | 2.8 | – | – | – | – | – | – | – | 10.9 | 7.8 | -9.5
13 | Cc1ccc2nc(NCCN)c3ncc(C)n3c2c1 | 4.2 | 3 | 2.2 | 1 | -1.9 | 1.4 | 3.8 | -2.3 | 1.4 | -1.3 | 1.8 | 0.5 | 3.7
14 | Cc1nc(Nc2n[nH]c3c2CN(C(=O)N[C@H](CN(C)C)c2ccccc2)C3(C)C)c2sccc2n1 | 5.3 | 5.9 | 3.6 | 0 | -5.2 | 5.3 | 15.4 | 9.2 | 17.9 | 4.9 | 12.7 | -4.7 | 0.7
15 | Cc1nn(C)c(COc2ccc(N3CCN(S(=O)(=O)N(C)C)CC3)cc2)c1-c1cccc2c(CCCOc3cccc4ccccc34)c(C(=O)O)n(CCN3CCOCC3)c12 | -0.8 | 4.4 | -0.8 | -0.8 | 0 | -0.8 | -0.4 | -0.8 | -0.8 | -0.8 | -0.8 | -0.8 | -0.8
16 | Cn1cc(C2=C(c3ccc(Cl)cc3Cl)C(=O)NC2=O)c2ccccc21 | -1.5 | -1.5 | -1.5 | -1.5 | -6.5 | 6.9 | 5.1 | 2.1 | 0.1 | 3.8 | -1.5 | 0.4 | -1.5
17 | O=C(NCC1CCOCC1)c1cnc(Nc2ccc(Cl)cc2Cl)nc1C(F)(F)F | -0.5 | -0.5 | -0.5 | -0.5 | -0.5 | -0.5 | -0.5 | -0.5 | -0.5 | -0.5 | -0.5 | -0.5 | -0.5

Row | SMILES | differential drug sensitivity score (CDS-ZH001-2) | differential drug sensitivity score (CDS-ZH001) | differential drug sensitivity score (CDS-ZH002 direct) | differential drug sensitivity score (CDS-ZH002) | differential drug sensitivity score (CDS-ZH003) | differential drug sensitivity score (ES-ZH001) | differential drug sensitivity score (ES-ZH002) | differential drug sensitivity score (ES-ZH004) | differential drug sensitivity score (ES-ZH007) | differential drug sensitivity score (ES-ZH008) | differential drug sensitivity score (ES-ZH009) | differential drug sensitivity score (ES-ZH016 direct) | differential drug sensitivity score (ES-ZH016)
18 | O=C(Nc1ccncc1)c1cc([N+](=O)[O-])ccc1Cl | -2.3 | -0.7 | 5.4 | -3 | -14.7 | 11.8 | 14.8 | 11.7 | 0.8 | 12.2 | -3.3 | -0.6 | -2.4
19 | O=c1cc(-c2cccc3c2Sc2ccccc2S3)oc(N2CCOCC2)c1 | 2.9 | 0 | 3.7 | -0.2 | -1.3 | -1.3 | -1.3 | -1.3 | -1.3 | -1.3 | -0.4 | 13.8 | -1.3
20 | CNC(=O)Nc1ccc2c(c1)CC[C@@]21OC(=O)N(CC(=O)N(Cc2ccc(F)cc2)[C@@H](C)C(F)(F)F)C1=O [A-485] | -2.1 | 8.4 | 6.8 | 6.8 | 22.3 | 4.6 | 5.2 | -3.4 | 2.9 | 1.4 | 2.6 | -5.4 | -4
21 | CCN1CCN(Cc2ccc(-c3cc4c(N[C@H](C)c5ccccc5)ncnc4[nH]3)cc2)CC1 [AEE788] | -0.2 | -0.7 | -1.2 | -3 | 5.8 | 3.6 | 0.3 | -1.1 | -4 | -0.1 | 1.6 | -6.1 | -4.1
22 | O=C(Nc1c[nH]nc1-c1nc2ccc(CN3CCOCC3)cc2[nH]1)NC1CC1 [AT9283] | 7 | -1.2 | -0.7 | -3.6 | -2 | 24.4 | 10.8 | 4 | 6.1 | 18.4 | 24.5 | 14.2 | 10.8
23 | N#Cc1ccc2[nH]c(O)c(-c3ccc(CN4CCOCC4)cn3)c2c1 [AZD1080] | -0.1 | -0.1 | -0.1 | -0.1 | -0.1 | -0.1 | -0.1 | 0.6 | 0.4 | 1 | 0 | 0.2 | -0.1
24 | N[C@@H]1CCCN(c2c(/C=C3\SC(=O)NC3=O)cccc2-c2ccccc2)C1 [AZD1208] | 2 | 8.2 | 1.1 | 1.2 | 13.6 | -0.4 | 0 | -0.8 | -2.9 | 1.8 | 3.6 | -2.9 | -2.9
25 | NC(=O)Nc1cc(-c2cccc(F)c2)sc1C(=O)N[C@H]1CCCNC1 [AZD7762] | 0 | 6.3 | -1 | -0.5 | -3.8 | 7.4 | 7.1 | -2.9 | 8.8 | 8.1 | 8.8 | 10.6 | 4.7
26 | COc1ccc(-c2ccc3c(N4CCOC[C@@H]4C)nc(N4CCOC[C@@H]4C)nc3n2)cc1CO [AZD8055] | 0.8 | 1.6 | -2.1 | -10.9 | 8.6 | 0.8 | 12.1 | 4.9 | 4.7 | 7.6 | 9.6 | -8.5 | 2
27 | CCN1CCN(Cc2ccc(Nc3ncc(F)c(-c4cc(F)c5nc(C)n(C(C)C)c5c4)n3)nc2)CC1 [Abemaciclib] | -2.7 | -2.4 | 2.2 | -2.7 | -2.7 | 8.8 | 14.7 | 10.4 | 5.7 | 10.7 | 6.4 | -2.7 | 1.5
28 | CN(C)Cc1c(C(=O)NCCOc2ccc(C(=O)NO)cc2)oc2ccccc12 [Abexinostat] | 4.2 | -3.5 | -0.7 | 0.1 | -11.2 | 5.3 | 3.9 | 3.2 | 4.9 | 9.6 | 10.5 | 2.4 | 4.3
29 | O=C(O)C1(C(=O)O)CCC1.[NH2-].[NH2-].[Pt+2] [Carboplatin] | -1.6 | – | -1.2 | -1.6 | -1.6 | -0.3 | 2.2 | 0.8 | -0.9 | 2.5 | -1.6 | 8.6 | 1.7
30 | CCN(CC)CCCC(C)Nc1ccnc2cc(Cl)ccc12 (stereo unspecified) [Chloroquine] | 4.7 | 0.3 | – | 5.3 | -3.8 | -3.8 | -0.6 | 3 | 2.8 | 1.4 | -2 | – | –
31 | N.N.[Cl][Pt][Cl] [Cisplatin] | – | – | -2.4 | -0.5 | – | -1.1 | 7.1 | 5.8 | 3.9 | 2.9 | -1.4 | – | –
32 | COc1ccc(-c2nc(N3CCOCC3)c3sc(CN(C)c4ncc(C(=O)NO)cn4)cc3n2)cn1 [Fimepinostat] | 5.7 | 1.5 | – | -3.2 | -0.5 | 5.9 | 6 | 8.6 | 10.6 | 9.2 | 6.1 | 8.8 | 0.5
33 | CC(C)(C)Cn1c(N)nc2ccc(-c3[nH]c(C(C)(C)C)nc3-c3ccc(F)cc3)nc21 [Ralimetinib] | 6.3 | -2.9 | – | 4.9 | 13.4 | -5.3 | 0 | -2.2 | -4.3 | -4.4 | -3.2 | – | –
